Where a name gives a salt, the structure may show the parent alone.
What was measured:
[1] = system: patients suffering from lower urinary tract symptoms; test: Clinical test to patients suffering from lower urinary tract symptoms (four-week test); type: in vivo, human; conditions: total score for subjective symptom and QOL index
Experimental: A clinical test was carried out under the following conditions using the patients suffering from lower urinary tract symptoms. (cf. Chapter 1: Indexes for Evaluation of Prostatic Hypertrophy in “Guideline for Clinical Test for Urinary Disturbance” published by Iyaku Tosho Shuppan) Subjects: four patients diagnosed as lower urinary tract symptoms, i.e. urinary disturbance without clear organic or neurological abnormality in lower urinary tract (3 males and 1 female). Test drug and administering method:. One capsule containing 0.2 mg of tamsulosin hydrochloride was orally administered once daily after breakfast. Test period: four weeks (28 days) Observed items: Evaluations and measurements were made for the following items before and after the administration. (1) Total score for subjective symptoms Questioning was done to the patients for the following items and the total score was obtained. (2) QOL Index With regard to an index for quality of life (QOL), a questioning that “How do you think if the present urinary condition continues in future as well?” was done as a total diagnosis concerning the urinary disturbance and any of the following evaluations was collected.

[2] = system: patients suffering from lower urinary tract symptoms; test: Clinical test to patients suffering from lower urinary tract symptoms (twelve-week test); type: in vivo, human; conditions: total score for subjective symptom, QOL index and test on functions
Experimental: A clinical test was carried out under the following conditions using the patients suffering from lower urinary tract symptoms. Subjects: eighteen patients diagnosed as lower urinary tract symptoms, i.e. urinary disturbance without clear organic or neurological abnormality in lower urinary tract (15 males and 3 female, age: 57.2±14.2). Test drug and administering method: One capsule containing 0.2 mg of tamsulosin hydrochloride was orally administered once daily after breakfast for four weeks and, after that, the dose after 4 weeks was controlled in consideration of the following criterion, and the dose was orally administered once daily after breakfast. [table] Test period: twelve weeks (84 days) (4 weeks (28 days) for 8 males) Observed items: Evaluations and measurements were made for the following items before and after the administration. (1) Total score for subjective symptoms Total scores for the following <1>˜<7> before and after the administration were obtained in the same way as in Test Example 1. <1> Feel of residual urine, <2> Urination within two hours, <3> Break of urinary stream, <4> Urgency, <5> Force of urinary stream, <6> Straining upon urination and <7> Frequency of urination at night. (2) QOL Index “How do you think if the present urinating state continues in future as well?” (3) Test on Functions <1> maximum urinary stream rate <2> average urinary stream rate

CCOc1ccccc1OCCN[C@H](C)Cc1ccc(OC)c(S(N)(=O)=O)c1 [tamsulosin hydrochloride, (R)(−)-5-[2-[[2-(o-ethoxyphenoxy)ethyl]amino]propyl]-2-methoxybenzene-sulfonamide]
Overall conclusion on efficacy as therapeutic agent for lower urinary tract symptoms [1]: confirmed to be effective
Overall conclusion on efficacy as therapeutic agent for lower urinary tract symptoms [2]: confirmed to be effective
